# Test results: patent US20230150951A1, “2,5- OR 2,6-DISUBSTITUTED HYDROQUINONE DERIVATIVES WITH AT LEAST ONE CARBOXY, SULFO OR AMIDO GROUP USEFUL AS MEDICAMENTS” (OM PHARMA SA, priority 2020, published 2023)
# Read-outs that look alike come from different tables or passages of the source.
# Tests used:
# Type in all cases: cell-based
# [1] = test system: IL-10; assay: Cytokine release after LPS induction on human whole blood: IL-10
# Description: (§1) Aim of this in vitro method is to assess compounds effects on release of a panel of cytokines from whole blood following lipopolysaccharide (LPS) induced inflammatory reaction. Whole blood was incubated with compounds for 1 h prior to LPS induction. Cytokine levels in blood were measured using a multiplex FACS-based panel.
# (§2) IC50 values determined for the tested compounds expressed in microM [μM] and the values for the inhibition of cytokines were listed for each compound.
# (§3) Effect on cytokines release after LPS induction was performed on the compounds dissolved in DMSO or H2O to reach 10-fold concentrated stock solutions and dissolved in culture media.
# (§4) Test system: Whole blood was removed from a single donor (into lithium heparin coated tubes; BD Vacutainer; 367886) and diluted 1:5 with RPMI 1640 (Thermo Fisher, 61870036). Within 30 minutes of sampling, blood was incubated with compounds for 1 h prior to LPS stimulation (O111:B4—Sigma L4391; 10 ng/ml final concentration). Stimulation continued under standard cell culture conditions (37° C. with 5% CO2) overnight (18 h), after which plates were centrifuged and supernatant removed and frozen at −80° C. until used for analyses.
# (§5) Dilution of test compounds: 10×concentrated solutions (concerning to the final assay concentrations) of each test compound were prepared with the appropriate solvent (in DMSO or in water). These 10× compound solutions (10 μl) were then added to 90 μl pre-diluted whole blood (whole blood: RPMI1640, 1:5) resulting in the final assay concentration.
# (§6) Test method: Diluted whole blood (80 μl) was pre-incubated with compounds (10 μl) to give final assay concentrations of 100, 30, 10, 3, 1, 0.3 and 0.1×10^−6M. Blood was incubated at 37° C. with 5% CO2 for 1 h. LPS was diluted in cell culture media to a concentration of […]; 10 μl was added to the whole blood to give a final concentration of 10 ng/ml. Plates were incubated at 37° C. for 18 h. Plates were centrifuged at 3,000 RPM for 5 minutes at 4° C. and supernatant removed and frozen at −80° C. until FACS analysis was carried out.
# (§7) Cytokine release was measured using a custom multiplex system (ELISA Genie) according to manufacturers instructions. Prepared samples were run on an Attune NxT flow cytometer (Thermo Fisher).
# (§8) Quantification of cytokine release inhibition: known concentration standards were run as part of the cytokine panel to allow quantification of each cytokine concentration in each sample. This was carried out using FCAP Array v3.0 software.
# (§9) Results: The dose response relationship on cytokine release following LPS induction of inflammatory response in whole blood was assessed for all compounds. IC50 values were determined for each compound for a panel of cytokines (GM-CSF, IFN-gamma, IL-1beta, IL-2, IL-4, IL-5, IL-6, IL-8, IL-9, IL-10, IL-12p40, IL-13, IL-17A, IL-17F, IL-18, IL-21, IL-22, IL-33, TGF-beta, TNF-alpha, TNF-beta).
# [2] = test system: IL-12p70; assay: Cytokine release after LPS induction on human whole blood: IL-12p70
# [3] = test system: IL-21; assay: Cytokine release after LPS induction on human whole blood: IL-21
# Description: as §1, §2, §3, §4, §5, §6, §7, §8, §9
# [4] = test system: IL-33; assay: Cytokine release after LPS induction on human whole blood: IL-33
# Description: as §1, §2, §3, §4, §5, §6, §7, §8, §9
# [5] = Homo sapiens, LPS 10 ng/ml, 18 h, read-out: Whole Blood: IL-10 IC50
# [6] = human whole blood, inhibition of LPS induced inflammation, read-out: IC50 IL-10
# [7] = Homo sapiens, LPS 10 ng/ml, 18 h, read-out: Whole Blood: IL-12p70 IC50
# [8] = human whole blood, inhibition of LPS induced inflammation, read-out: IC50 IL-12p70
# [9] = Homo sapiens, LPS 10 ng/ml, 18 h, read-out: Whole Blood: IL-21 IC50
# [10] = human whole blood, inhibition of LPS induced inflammation, read-out: IC50 IL-21
# [11] = Homo sapiens, LPS 10 ng/ml, 18 h, read-out: Whole Blood: IL-33 IC50
# [12] = human whole blood, inhibition of LPS induced inflammation, read-out: IC50 IL-33
SMILES,"IC50 [1, 5] [µM]","IC50 [1, 6] [µM]","IC50 [2, 7] [µM]","IC50 [2, 8] [µM]","IC50 [3, 9] [µM]","IC50 [3, 10] [µM]","IC50 [4, 11] [µM]","IC50 [4, 12] [µM]"
"O=C(O)Cc1cc(O)c(C(=O)Nc2c(C(=O)O)cccc2C(=O)O)cc1O [IIIa-013a, 2-(4-(carboxymethyl)-2,5-dihydroxybenzamido)isophthalic acid]",37.3,37.3,0.5,0.5,1.63,1.63,1.11,1.11
"CC(=O)N(Cc1cc(O)c(C(=O)O)cc1O)Cc1cc(O)c(C(=O)O)cc1O [IIIc-057a, N,N-Bis(4-carboxy-2,5-dihydroxyphenylmethyl)acetamide]",> 100,100,0.73,0.73,1.56,1.56,2.93,2.93
"O=C(O)c1cc(O)c(CN(Cc2cc(O)c(C(=O)O)cc2O)Cc2cc(O)c(C(=O)O)cc2O)cc1O [IIIc-061a, Tris(4-carboxy-2,5-dihydroxyphenylmethyl)amine]",17.9,17.9,37.2,37.2,6.38,6.38,0.31,0.31
"O=C(O)c1ccccc1CNC(=O)c1cc(O)cc(C(=O)O)c1O [IIa-053a, 3-(2-Carboxyphenylmethylaminocarbonyl)-2,5-dihydroxybenzoic acid]",> 100,100,0.27,0.27,> 100,100,12.1,12.1
"O=C(O)c1cc(NC(=O)c2cc(O)cc(C(=O)Nc3ccc(O)c(C(=O)O)c3)c2O)ccc1O [IIc-007a, 5-(3-(3-carboxy-4-hydroxyphenylaminocarbonyl)-2,5-dihydroxybenzamido)-2-hydroxy benzoic acid]",17.9,17.9,3.37,3.37,9.41,9.41,0.18,0.18

# The next molecules have a lower IC50 [1, 5] than those just listed; values first:
"IC50 [1, 5] [µM]","IC50 [1, 6] [µM]","IC50 [2, 7] [µM]","IC50 [2, 8] [µM]","IC50 [3, 9] [µM]","IC50 [3, 10] [µM]","IC50 [4, 11] [µM]","IC50 [4, 12] [µM]",SMILES
7.78,7.78,0.48,0.48,3,3,0.14,0.14,O=C(O)Cc1cc(O)c(C(=O)Nc2ccccc2-c2nnn[nH]2)cc1O [IIIa-001aTz]
11.3,11.3,> 100,100,8.01,8.01,0.29,0.29,"O=C(O)c1cc(O)ccc1NC(=O)c1cc(O)cc(C(=O)Nc2ccc(O)cc2C(=O)O)c1O [IIc-009a, 2-(3-(2-carboxy-4-hydroxyphenylaminocarbonyl)-2,5-dihydroxybenzamido)-5-hydroxyl benzoic acid]"
16.4,16.4,4.23,4.23,3.2,3.2,33.9,33.9,"O=C(O)c1cc(O)cc(CSCc2cc(O)cc(C(=O)O)c2O)c1O [IVc-058a, 3-((2,5-Dihydroxy-3-carboxyphenyl)methylthiomethyl)-2,5-dihydroxybenzoic acid]"
1.31,1.31,42,42,1.87,1.87,27.5,27.5,"O=C(O)c1cc(O)cc(CS(=O)(=O)Cc2cc(O)cc(C(=O)O)c2O)c1O [IVc-059a, 3-((2,5-Dihydroxy-3-carboxyphenyl)methylsulfonylmethyl)-2,5-dihydroxybenzoic acid]"
16.8,16.8,51.4,51.4,> 100,100,23.2,23.2,COC(=O)c1cc(OC(C)=O)cc(CS(=O)(=O)Cc2cc(OC(C)=O)cc(C(=O)OC)c2OC(C)=O)c1OC(C)=O [IVc-059a-E2-A4]
